Reference: PubChem BioAssay AID1963597 (National Center for Advancing Translational Sciences (NCATS), 2024)

Test system: human liver microsomes, metabolic stability half-life
Experiment: NCATS Human Liver Microsomal (HLM) Stability Profiling
Conditions: higher = more stable; screened at 1 µM (by protocol)
Description: Assay submitter (PI): Dr. Pranav Shah
NIH Center for Advancing Translational Sciences
Pharmacokinetic issues were the leading cause of drug attrition, accounting for approximately 40% of all cases before the turn of the century. To this end, several high-throughput in vitro assays like microsomal stability have been developed to evaluate the pharmacokinetic profiles of compounds in early stages of drug discovery. At NCATS, a single-point rat liver microsomal (RLM) stability assay is used as a Tier I assay, while human liver microsomal (HLM) stability is employed as a Tier II assay. While it is beneficial to have compound libraries screened for HLM stability, the increasing magnitude of hits routinely generated, and the time- and re-source-intensive nature of the assay makes it important to find alternatives. One strategy is to rely on in silico models that have been developed using data generated from these assays. Herein, we describe the development of an HLM stability prediction model using our in-house dataset of ~7,000 compounds, employing both traditional and advanced machine learning methods. Additionally, the strong correlation between our RLM and HLM data was further reinforced by the fact that our HLM model performance improved after adding RLM stability predictions as an input descriptor. […] The best model along with a subset of our dataset has been made publicly accessible on the NCATS@ADME website for the benefit of the greater drug discovery community.
Microsomal Stability Assay
The substrate depletion method, also called the in vitro t1/2 method was used to analyze test compounds. Incubation and liquid handling were carried out using a previously described method (Shah et al., 2016). Briefly, each reaction mixture (110 µL) consisted of a test article (1 µM), human liver microsomes (0.5 mg/mL), and NADPH regenerating system in phosphate buffer at pH 7.4. Samples were incubated in 384-well plates at 37 degrees C for 0, 5, 10, 15, 30 and 60 min. At each time point, 10 µL of the incubation mixture was aspirated into another 384-well plate which contained cold acetonitrile (ACN) with internal standard (albendazole). All plates were centrifuged at 3000 rpm for 20 min at 4 degrees C, and the supernatants were transferred to a 384-well injection plate. Sample quantification and analysis was performed using a previously described method (Shah et al., 2016, Siramshetty et al., 2020).
1: Shah, P. et al. An Automated High-Throughput Metabolic Stability Assay Using an Integrated High-Resolution Accurate Mass Method and Automated Data Analysis Software. Drug Metab Dispos 44, 1653-1661 (2016).
2: Siramshetty et al. Retrospective assessment of rat liver microsomal stability at NCATS: data and QSAR models. Sci Rep 26;10(1):20713 (2020).

Structure (SMILES) | half-life
COc1cc(C(c2c(C)[nH][nH]c2=O)c2c(C)[nH][nH]c2=O)ccc1OC(=O)c1cccc(C)c1 | 2.21 min
COC(=O)N[C@@H](C)CNc1nccc(-c2cn(C(C)C)nc2-c2cc(Cl)cc(NS(C)(=O)=O)c2F)n1 | 34.4 min
O=C(Cn1cc(SCc2cccc(Cl)c2)c2ccccc21)N1CCCCC1 | 0.84 min
C[C@]12CC[C@H]3[C@@H](CC[C@@]45O[C@H]4C(O)=C(C#N)C[C@]35C)[C@H]1CC[C@H]2O | 85 min
O=C(NC1(c2ccccc2)CC1)c1c(CN2CCC(N3CCCCC3)CC2)c(-c2cccc(C(F)(F)F)c2)nc2cc(Br)ccc12 | 28.1 min
COc1cccc(C(=O)Nc2nc(-c3nnn(-c4ccccc4C(F)(F)F)c3C)ns2)c1 | > 120 min
COc1cc(N2CCOCC2)ccc1NC(=O)c1csc(-c2cccnc2)n1 | 30.2 min
CC(C)(N)c1ccc(-c2nc3ccccc3nc2-c2ccccc2)cc1 | > 120 min
COCC(=O)NCC=Cc1ccc2ncnc(Nc3ccc(Oc4ccc(C)nc4)c(C)c3)c2c1 | 22.7 min
CN1CCN(C(=O)c2cc(-c3cccnc3)nc3c2cnn3C)CC1 | > 120 min
CCCCCOc1cc2c(cc1-c1cc(/C=C/C(=O)O)ccc1O)C(C)(C)CCC2(C)C | 10.8 min
NC(=O)[C@H]1CCS[C@@H]2C[C@]3(CCCN3C(=O)Cc3ccc(NC(=O)COc4ccc(Cl)cc4Cl)cc3)C(=O)N12 | 7.68 min
CN1CC(=O)N/C1=N/C(=O)Nc1cccc(Cl)c1 | 24.1 min
CCN(Cc1ccc(Cl)nc1)/C(=C/[N+](=O)[O-])NC | > 120 min
COc1cc2nc(=NC(=O)c3cccnc3)n3c(c2cc1OC)NCC3 | 45 min
Cc1[nH]c(/C=C2\C(=O)Nc3cc(-c4ccccc4)ccc32)c(C)c1CCC(=O)O | > 120 min
CCOc1cc(NC(C)=O)ccc1C(=O)OC | 6.75 min
O=C(N/N=C/C1C=CC([N+](=O)[O-])O1)c1ccc(O)cc1 (configuration not stated) | > 120 min
CC(=O)NC[C@H]1CN(c2ccc(N3CCSCC3)c(F)c2)C(=O)O1 | > 120 min
COc1cccc(CCc2ccccc2OCC(CN(C)C)OC(=O)CCC(=O)O)c1 (configuration not stated) | 38.8 min
N#Cc1c[nH]c2c(C(=O)N3CCN(CCc4ccc(F)cc4)CC3)cccc12 | 29.8 min
N#Cc1cnc2cnc(NCc3cccnc3)cc2c1Nc1ccc(F)c(Cl)c1 | 12.4 min

Structure (SMILES) | half-life
N#C/C(=C1\SCC(c2ccccc2Cl)S1)n1ccnc1 (configuration not stated) | 86.2 min
COc1cc2c(cc1OC)CN(C(=O)[C@H](C)N[C@@H](CCc1ccccc1)C(=O)O)[C@H](C(=O)O)C2 | > 120 min
CC(=O)Nc1ccc(OC[C@@H](O)CNC(C)C)cc1 | > 120 min
O=C(Nc1nnc(-c2ccc3c(c2)OCCO3)o1)C1CCCCC1 | 0.57 min
O=S(=O)(O)c1cc(I)c(O)c2ncccc12 | > 120 min
NC(=O)c1ccccc1O | > 120 min
CCOC(=O)c1cc(=O)c2c(OCC(COc3cccc4oc(C(=O)OCC)cc(=O)c34)OC(=O)[C@@H](N)CCCCN)cccc2o1 | 4.47 min
OCCCNc1cc(-c2ccnc(Nc3cccc(Cl)c3)n2)ccn1 | 24.5 min
COc1ccc(C(=O)n2c(C)c(Cc3cccc(O[C@@H](C)C(=O)O)c3)c3cc(OC(F)(F)F)ccc32)cc1 | > 120 min
Cc1c(NC(=O)OCC2COCCN2)cn2ncnc(Nc3ccc4c(cnn4Cc4cccc(F)c4)c3)c12 (configuration not stated) | > 120 min
O=C(O)c1ccccc1-c1c2cc(Br)c(=O)c(Br)c-2oc2c(Br)c(O)c(Br)cc12 | > 120 min
O=c1c2cccnc2n(-c2cccc([N+](=O)[O-])c2)c(=O)n1Cc1ccncc1 | 24.5 min
CC(C)(C)c1ccc(CNC(=S)NCc2ccc(NS(C)(=O)=O)c(F)c2)cc1 | 43 min
O=C(CCCN1CCC(n2c(=O)[nH]c3ccccc32)CC1)c1ccc(F)cc1 | > 120 min
COc1ccncc1C(=O)NC(=O)Nc1ccc(-c2ccccc2)c(C(F)(F)F)c1 | > 120 min
COc1ccc(OC)c(C2C(C#N)=C(N)Oc3n[nH]c(-c4ccc5ccccc5c4)c32)c1 (configuration not stated) | > 120 min
O=c1[nH]c([C@@H]2CCCN2)nc2c1oc1ccc(Cl)cc12 | > 120 min
NS(=O)(=O)c1ccc(Cc2c(-c3cccc(-c4ccccc4)c3)nn(-c3nc(C(=O)O)cs3)c2CC2CC2)cc1 | 83.6 min
CC(C)COC(=O)c1ccc(N)cc1 | 11.4 min
O=C1NC(=Nc2ccccc2F)S/C1=C\c1ccc(C(=O)O)cc1 | 52.4 min
O=C(NCCN1CCN(c2cccc3c2OCCO3)CC1)c1ccc(F)cc1 | 34.2 min
CCN1CCN(C(=O)c2cc(-c3ccc(F)cc3)nc3c2cnn3C)CC1 | 99.2 min

Structure (SMILES) | half-life
C[C@]12C=CC(=O)C=C1CCC1C3C[C@@H](O)[C@](O)(C(=O)CO)[C@@]3(C)C[C@H](O)[C@@]12F (some centres not stated) | > 120 min
CC(=O)OCC(CCn1cnc2cnc(N)nc21)COC(C)=O | 2.34 min
CC1CC(C)C(=O)C(C(O)CC2CC(=O)NC(=O)C2)C1 (configuration not stated) | > 120 min
O=C(NCc1ccco1)c1ccc2c(c1)N(Cc1cccc(Cl)c1)C(=O)c1ccccc1S2=O (configuration not stated) | 0.62 min
CCN(CC)C(=O)C(c1ccccc1)N1CCN(c2ccc(NC(=O)c3ccccc3-c3cccnc3)cc2F)CC1 (configuration not stated) | 4.93 min
CC1(C#N)CCN(c2c(C(=O)N3CCC(S(C)(=O)=O)CC3)cnc3cc(F)c(F)cc23)CC1 | > 120 min
CC1(C)O[C@@H]2C[C@H]3[C@@H]4CCC5=CC(=O)C=C[C@]5(C)[C@@]4(F)[C@@H](O)C[C@]3(C)[C@]2(C(=O)CO)O1 | 27.3 min
Nc1nc2ccccc2n1Cc1ccc(F)cc1 | > 120 min
CC(Cc1ccccc1)NCc1ccccc1Cl (configuration not stated) | 10.6 min
O=C(O)c1ccc(OCCN2CCCCC2)cc1 | > 120 min
Nc1nccs1 | 53.7 min
COc1ccc(CC(=O)Nc2c(C(=O)N3CCN(c4ccccc4F)CC3)oc3ccccc23)cc1OC | 5.26 min
c1ccc(-c2cnc(Nc3ccc(OCCN4CCCC4)cc3)s2)cc1 | 103 min
Cc1cc(C)cc(-c2cnc3cc(Cl)c(-c4cccc(O)c4)cc3c2OCCCN)c1 | 25.3 min
CC(C)C(Br)C(=O)NC(N)=O (configuration not stated) | > 120 min
C=C1CCN([C@H](C)[C@](O)(Cn2cncn2)c2ccc(F)cc2F)CC1 | 10 min
O=c1cc(OCc2ccc(F)cc2)ccn1-c1ccc(OCCN2CCCC2)cc1 | > 120 min
COc1ccc(Sc2ccc(NC(=O)c3ccccc3Cl)cc2C#N)cc1 | 31.4 min
Nc1nc2c(c(N3CCNCC3)n1)CCC1=C2[C@@H]2CCCC[C@@H]2O1 | > 120 min
COc1ccccc1N1CCN(c2csc3ccc(Cl)cc3c2=O)CC1 | 15.7 min
CCC(=C(c1ccccc1)c1ccc(OCCN(C)C)cc1)c1ccccc1 | 94.5 min
O=C(NOCC1CC1)c1ccc(F)c(F)c1Nc1ccc(I)cc1Cl | 11.2 min

Structure (SMILES) | half-life
N#Cc1cc(-c2n[nH]c(-c3ccncc3)n2)ccn1 | 90.6 min
Cc1c(C)n(Cc2ccccc2)c2ccc(C(=O)OCCN(C)C)cc12 | 11.1 min
O=C(Nc1ncc(-c2cc(C(F)F)nn2-c2c(Cl)cccc2Cl)s1)C1CC1 | > 120 min
CCc1ccc(C(=O)C(C)CN2CCCCC2)cc1 (configuration not stated) | 4.87 min
C#C[C@]1(OC(C)=O)CC[C@H]2[C@@H]3CCC4=C/C(=N/O)CC[C@@H]4[C@H]3CC[C@@]21CC | 6.21 min
CCC[C@H](N[C@H]1CCc2cc(F)cc(F)c2C1)C(=O)Nc1cn(C(C)(C)CNCC(C)(C)C)cn1 | 3.12 min
COc1ccc(NC(=O)Cn2ccn(-c3ccc(C)c(C)c3)c(=O)c2=O)cc1Cl | > 120 min
Cc1cc(OCc2nnc(SC3CCCC3)n2-c2cccnc2)ccc1-c1ccc(S(C)(=O)=O)cc1 | 1.66 min
COc1cc2nc(Cl)nc(N)c2cc1OC | 105 min
CCCCNc1c(C(=O)OCC)c(C)nc2c1cnn2CC | 5.85 min
COc1ccc(CCN(C)CCC[C@@](C#N)(c2cc(OC)c(OC)c(OC)c2)C(C)C)cc1OC | 7.68 min
CCN1CCN(C(=O)c2ccc3c(c2)N(Cc2cc(C)ccc2C)C(=O)c2ccccc2S3(=O)=O)CC1 | 1.24 min
CCN(CC)C(=O)c1cccc(C)c1 | > 120 min
CCCn1cnc2c1c(=O)n(CCCCC(C)=O)c(=O)n2C | > 120 min
c1cc(-c2cc(C3CCNCC3)[nH]n2)ccn1 | 72.6 min
CC(C)(C)Oc1ccc(OCC2Cc3ccccc3CN2C(=O)c2cccc3ccccc23)cc1 (configuration not stated) | 5.19 min
NC(=O)c1ccc(F)c2c1C[C@@H](N(C1CCC1)C1CCC1)CO2 | 15 min
CC(CN1c2ccccc2Sc2ccccc21)N(C)C (configuration not stated) | 32.3 min
COc1ccccc1OC[C@H](O)COC(N)=O | > 120 min
CC(C)NC(=O)COc1cccc(-c2nc(Nc3ccc4[nH]ncc4c3)c3ccccc3n2)c1 | 23.4 min
Cc1nc2c3ccccc3nc(NNC(=O)CCC(=O)N3CCN(c4cccc(Cl)c4)CC3)n2n1 | 10.9 min
